Measured values taken from patent publication US7511062B2, “Substituted 2-quinolyl-oxazoles useful as PDE4 inhibitors” (Schering Corporation, priority 2004, dated 2009).

What follows are compounds tested against Human PDE4 Enzyme (assay: PDE4 screening assay ([3H]cAMP SPA)). Conditions: human neutrophil PDE4, [3H]cAMP SPA.
Type: biochemical
Method: The neutrophils were isolated from human blood using a standard procedure, then homogenized with a glass-glass homogenizer in a buffer containing 20 mM Tris/HCl (pH 8.0), protease inhibitor cocktail tablet (Cat. No. 1836145/Boehringer Mannheim), 2 mM EDTA, 1% Triton X-100 and 0.5% deoxycholate. After stirring for 2 h at 4° C., the samples were centrifuged at 100,000 g for 1 h. The supernatants were collected, filtered and applied to Mono Q column chromatography. The fractions containing the activity of hydrolyzing cAMP were determined and pooled as the enzymatic source of the PDE4 screening assay.
2. PDE4 Assay and Compound Screening
The PDE4 assays were performed using Phosphodiesterase [^3H]cAMP SPA enzyme assay kits and its procedures (Cat. No. TRKQ 7090, Amersham). The assay procedures are described briefly as follows. The diluted PDE4 enzyme, 10× assay buffer and water were mixed at a ratio of 1:1:6 (10 μl/10 μl/60 μl). 80 μl aliquots of this mixture were added into the test wells of a 96-well Microlite plate (Cat. No. 7416, ThermoLabsystems). Enzyme dilution buffer, instead of the diluted enzyme, and water were added into the wells of negative control (background). 10 μl test compounds in 10% DMSO, standard inhibitor in 10% DMSO or 10% DMSO (for positive and negative controls) were added into the corresponding wells, respectively. After a 10 min incubation at RT, the reactions were initiated by addition of 10 μl pre-diluted [^3H]cAMP into each well, then incubated at 30° C. for 30 min. The reactions were stopped by addition of 50 μl SPA beads into the test wells, then counted in a β-counter over 30 min ˜24 hr.
10× Assay Buffer: 500 mM Tris/HCl pH 7.5, 83 mM MgCl2, 17 mM EGTA
[^3H]cAMP: [3H] cAMP (40-60 Ci/mmol) is diluted at a 1:200 ratio with water. The final concentration is 0.005 μCi/μl
Yttrium SPA Beads: 500 mg of beads was reconstituted with 28 ml of water, stored at 4° C.

| IC50 [nM] | Structure (SMILES) |
| --- | --- |
| 1.4 | COc1ccc(-c2nc(C(=O)N[C@H]3CCC[C@@H]3O)c([C@H](C)N)o2)c2ccc(C(F)(F)F)nc12 [26-417] |
| 0.03 | COc1ccc(-c2nc(C(=O)NC[C@@H](C)NC(=O)C3CC3)c([C@H](C)N)o2)c2ccc(C(F)(F)F)nc12 [26-444] |
| 1.8 | COc1ccc(-c2nc(C(=O)NCc3ccc(F)cc3F)c([C@@H](N)CO)o2)c2ccc(C(F)(F)F)nc12 [38-3] |

The next lines start with the compound.

| Structure (SMILES) | IC50 [nM] |
| --- | --- |
| COc1ccc(-c2nc(C(=O)NC3CCCc4nccnc43)c([C@H](C)N)o2)c2ccc(C(F)(F)F)nc12 (mixture of isomers) [26-42] | 0.07 |
| COc1ccc(-c2nc(C(=O)NCc3csc4ccccc34)c(CN)o2)c2ccc(C(F)(F)F)nc12 [13-106] | 0.14 |
| COc1ccc(-c2nc(C(=O)NCc3coc4ccccc34)c([C@H](C)N)o2)c2ccc(C(F)(F)F)nc12 [26-92] | 0.01 |
| COc1ccc(-c2nc(C(=O)N3CCC(Nc4ncccn4)CC3)c([C@H](C)N)o2)c2ccc(C(F)(F)F)nc12 [26-177] | 3 |
| COc1ccc(-c2nc(C(=O)N3C[C@](O)(c4ncccn4)C[C@H]3C(=O)OC(C)C)c([C@H](C)N)o2)c2ccc(C(F)(F)F)nc12 [26-241] | 0.2 |
| COc1ccc(-c2nc(C(=O)N3CCN(C(=O)C4CC4)CC3)c([C@H](C)N)o2)c2ccc(C(F)(F)F)nc12 [26-293] | 0.5 |
